Key:
[1] = system: Redroot pigweed (AMARE), normal wild variety (non-tolerant); assay: Glasshouse postemergence herbicide test, percentage damage on normal wild (non-tolerant) plants; assay type: in vivo; conditions: rates of Table 1; 13 days after application
Source text: (§1) The soil was a silty clay loam mixed with fertiliser (12-12-12) at the rate of 128 g fertiliser to 10 gallons of soil.
(§2) The tolerant seeds were planted 13 days earlier than the non-tolerant seeds in order to get the seedlings to a similar size by the time the herbicide was applied. The time difference in planting was based on earlier observations of germination speed. On application of the herbicides, the tolerant plants had reached the 6-9 leaf stage, and the non-tolerant plants the 5-leaf stage.
(§3) Herbicide solutions were made by dissolving the herbicide(s) in tap water containing 0.5% of a commercial surfactant, ‘Tween 20’. The solutions were applied at […] and 40 p.s.i pressure, using an 80015E nozzle. After spraying, the plants were placed in a glasshouse at 29/20° C. day/night temperature and 45/65% day/night relative humidity and a photoperiod of 14 hours.
(§4) The figures in the mesotrione and atrazine columns are g/ha of herbicide applied to the test pots. The figures in the subsequent columns are percentage damage observed 13 days after application of the relevant herbicide composition. The numbers range from 0 (no effect) to 100 (dead plants). The main area of focus for the present invention is the effect on tolerant plants, and the effect on non-tolerant plants was only measured for comparative purposes.

[2] = system: Redroot pigweed (AMARE), variant known to exhibit triazine tolerance; assay type: in vivo; conditions: 13 days after application; for effect on tolerant plants (in words): rates of Table 1
Source text: as §1, §2, §3, §4

Compound: CCNc1nc(Cl)nc(NC(C)C)n1 [Atrazine, atrazine]
- effect on non-tolerant plants (in words) [1]: significantly damaging
- effect on tolerant plants (in words) [2]: no effect at all

Compound: CS(=O)(=O)c1ccc(C(=O)C2C(=O)CCCC2=O)c([N+](=O)[O-])c1 [mesotrione]
- effect on non-tolerant plants (in words) [1]: causes damage
- damage level on tolerant plants ([2]; 0.90 g/ha mesotrione alone): 2
- effect on tolerant plants (in words) [2]: causes damage

— US7071147B2, “Weed control process” (priority 2001, dated 2006)
